Data on 1 compound can be found in BindingDB's records for doi:10.1021/jm800739m (University of Southern California, 2009).

pIC50: −log10 of the molar value.

This test concerns the target DNA-(apurinic or apyrimidinic site) endonuclease (Homo sapiens, UniProt P27695). In words: APE1 Inhibition Assay. The settings on record: pH 7.5; 30 °C. How it is done: To determine the extent of abasic residue cleavage by APE1, recombinant APE1 was preincubated with the potential inhibitors in reaction buffer. Then, the 5-end 32P-labeled oligonucleotide substrate was added. The conversion of incision product was quantitated using PhosphorImager / ImageQuant 5.2 system. The IC50 values were determined by plotting the logarithm of drug concentration against percent inhibition of enzymatic activity. The optimum concentration of APE1 protein in the assay is the concentration at which there is complete conversion of the abasic-site containing oligonucleotide substrate to its cleaved product without subsequent exonuclease activity.

Chain of DNA-(apurinic or apyrimidinic site) endonuclease (P27695 whole entry): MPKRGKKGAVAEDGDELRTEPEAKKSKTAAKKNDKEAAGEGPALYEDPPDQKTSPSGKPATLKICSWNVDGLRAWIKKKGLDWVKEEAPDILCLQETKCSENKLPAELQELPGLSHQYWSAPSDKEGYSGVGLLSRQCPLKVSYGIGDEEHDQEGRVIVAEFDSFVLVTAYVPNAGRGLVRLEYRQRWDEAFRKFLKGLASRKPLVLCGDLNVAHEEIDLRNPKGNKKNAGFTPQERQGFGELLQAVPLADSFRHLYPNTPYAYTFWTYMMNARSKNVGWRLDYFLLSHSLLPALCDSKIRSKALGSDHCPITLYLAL

The pIC50 is the IC50 on a negative log10 scale, so that one unit is a factor of ten. In turn, `O=C(O)c1ccc(Sc2ccc(S(=O)(=O)c3ccc(C(=O)O)c(C(=O)O)c3)cc2)cc1` [4-({4-[(4-carboxyphenyl)sulfanyl]benzene}sulfonyl)benzene-1,2-dicarboxylic acid] had a pIC50 of 5.40.
